Entries after “also recorded” stand apart in the source; their conditions may differ.
Key:
[1] = tested on: Drosophila melanogaster under Paraquat-induced oxidative stress; experiment: Survival of Drosophila melanogaster under Paraquat-induced oxidative stress; format: in vivo; conditions: 10 mM Paraquat
Description: The effect of Agaricus Blazei without enrichment, with Vitamin D2 enrichment, pure Vitamin D2 and control (vehicle for the delivery) on the survival rate of Drosophila melanogaster under Paraquat-induced oxidative stress condition was tested. The study focused on the control of Paraquat induced oxidative stress/biologic death. Paraquat is a very potent oxidative stress inducing chemical and causes death in animals and plants by the toxicity of released free radicals. Paraquat (10 mM concentration) (Sigma Aldrich) was used to chemically induce oxidative stress. Paraquat is the trade name for N,N′-dimethyl-4,4′-bipyridinium dichloride, a widely used herbicide. Paraquat, a viologen, is quick-acting and non-selective, killing green plant tissue on contact. It is also toxic to humans when swallowed. This is the most standard chemical used in experimental induction of oxidative stress using the Drosophila model system. It catalyzes the formation of reactive oxygen species (ROS). Paraquat will undergo redox cycling in vivo, gets reduced by an electron donor such NADPH, before being oxidized by an electron receptor such as dioxygen to produce superoxide, a major ROS.
The following materials and methods were utilized. Vials containing 10 mM Paraquat (from Sigma Aldrich) in 5 ml of 1.2% Low melting point Agarose medium were prepared. A strip of half moist filter paper was inserted in the medium (with the wet end in). Yeast paste containing 1% concentration (w/w) of the various test materials (see above) mixed to homogeneity was prepared. Yeast paste without drug was used as control. Uniform aliquot (˜300 mg) of yeast paste with or without the test material) was applied to vials in such a way that yeast paste was on the glass surface and covered the dry end (top) of the filter paper strip. Freshly enclosed wild type isogenized Canton-S males and females were collected and starved on 1% agar medium for 5-6 hours. Four males and females were transferred to the vial containing 10 mM paraquat in LMP agarose medium and yeast paste with +/− test material (8 flies per vial). 6 vials were used per experiment. Vials with flies were placed horizontally in a tray. The experiment was conducted at 25 degrees C. temperature. Flies were transferred once in 2 days and the number of flies surviving at each transfer was recorded.

[2] = tested on: Alzheimer's disease (AD) model in Drosophila; experiment: Survival of Alzheimer's disease (AD) model flies (UAS-hAPP;408-GAL4); format: in vivo; conditions: mushroom or turmeric powder 1% w/w, Vitamin D2/D3 0.75% w/w in yeast paste, 25 degrees C
Description: Type of Model (with specific Drosophila model of neurodegeneration, with references). The targeted over/ectopic expression of APP in the brain using a UAS promoter driven APP transgene, induced by a specific GAL4 trans-driver in the brain of a Drosophila model system, was used for this Example. Below is a reference for such over-expression of APP in the Drosophila model system and the combination gives a fully penetrant AD with limited life-span.
β-Amyloid peptides and amyloid precursor protein (APP) play a deterministic role in Alzheimer's disease (AD). […]
We determined the extension of life span in the mutant strain for each test compound. […]
A series of experiments were run according to the methods earlier reported on Paraquat induced oxidative stress and Drosophila Alzheimer's disease flies. […] We determined the extension of life span in the mutant strain for each test compound as detailed below. […]
In the meantime, yeast paste containing required concentration of compound was prepared. […] Required quantity of both yeast and compound was weighed and finely ground in a pestle and mortar. The finely ground powder was transferred to a small beaker and appropriate quantity of water was added and mixed very well to make a homogeneous paste. […]

Row | SMILES | effect on survival under Paraquat-induced oxidative stress (words) [1] | effect on survival of AD flies [2] | survivability under Paraquat-induced oxidative stress condition ([1]; 1% w/w test material in yeast paste, period of 10 days, 25 degrees C) [%+/−3%] | effect on survival under Paraquat-induced oxidative stress (words) ([1]; listed as Vitamin D2)
1 | C=C1CC[C@H](O)C/C1=C/C=C1\CCC[C@]2(C)[C@@H]([C@H](C)CCCC(C)C)CC[C@@H]12 [Vitamin D3, cholecalciferol] | no beneficial effect; also recorded: no effect on survival | – | – | –
2 | C=C1CC[C@H](O)C/C1=C/C=C1\CCC[C@]2(C)[C@@H]([C@H](C)/C=C/[C@H](C)C(C)C)CC[C@@H]12 [pure Vitamin D2, ergocalciferol] | no effect on survival | no such effect | 13 | deleterious effect on the survival; also recorded: no beneficial effect
